Here are results for two compounds from PMC3478977, “Enabling structure-based drug design of Tyk2 through co-crystallization with a stabilizing aminoindazole inhibitor” (BMC Structural Biology, 2012).

The target of one test is T1, Jak2 (Homo sapiens, UniProt O60674).
T1 construct: purchased Upstate/Millipore #14–640
As to the kind of experiment: trFRET kinase activity assay, Jak2. Conditions: 1 μM ATP, mean and standard error; read-out: IC50, inhibition of Jak2 enzyme activity. It counts as biochemical. On the procedure: (§1) After 60 min incubation at room temperature, the reaction was quenched by addition of EDTA (final conc. 100 μM) and developed by addition of revelation reagents (final approximate concentrations: 30 mM HEPES pH 7.0, 0.06% BSA, 0.006% Tween-20, 0.24 M KF, 80 ng/mL PT66K (europium-labelled anti-phosphotyrosine antibody, cat #61T66KLB, Cisbio, Bedford, MA) and 3.12 μg/mL SAXL (Phycolink streptavidin-allophycocyanin acceptor, cat #PJ25S, Prozyme, San Leandro, CA)). The developed reaction was incubated in the dark either at 4°C overnight or at room temperature for ~1 h, then read with a time-resolved fluorescence detector (Rubystar, BMG Labtech) using a 337 nm laser for excitation and emission wavelengths of 620 nm and 665 nm. Within the linear range of the assay, this signal is directly related to phosphorylated product and was used to calculate IC50 values. Typically, seven-point inhibitor dilutions (5-fold; from 50 μM to 0.0032 μM) were used. IC50 values were calculated by fitting the following equation: […]
(§2) where [I] is total inhibitor concentration, Y is the percentage of activity (relative to that seen in no-inhibitor control) at a given inhibitor concentration, and Ymax is the maximum activity generated in the absence of inhibitor.
(§3) Purified Jak2 and Jak3 were purchased from Upstate/Millipore (cat numbers #14–640 and #14–629). […]

A further test deals with T2, Jak3 (Homo sapiens, UniProt P52333).
T2 construct: purchased Upstate/Millipore #14–629
T2 sequence (P52333 1-1124): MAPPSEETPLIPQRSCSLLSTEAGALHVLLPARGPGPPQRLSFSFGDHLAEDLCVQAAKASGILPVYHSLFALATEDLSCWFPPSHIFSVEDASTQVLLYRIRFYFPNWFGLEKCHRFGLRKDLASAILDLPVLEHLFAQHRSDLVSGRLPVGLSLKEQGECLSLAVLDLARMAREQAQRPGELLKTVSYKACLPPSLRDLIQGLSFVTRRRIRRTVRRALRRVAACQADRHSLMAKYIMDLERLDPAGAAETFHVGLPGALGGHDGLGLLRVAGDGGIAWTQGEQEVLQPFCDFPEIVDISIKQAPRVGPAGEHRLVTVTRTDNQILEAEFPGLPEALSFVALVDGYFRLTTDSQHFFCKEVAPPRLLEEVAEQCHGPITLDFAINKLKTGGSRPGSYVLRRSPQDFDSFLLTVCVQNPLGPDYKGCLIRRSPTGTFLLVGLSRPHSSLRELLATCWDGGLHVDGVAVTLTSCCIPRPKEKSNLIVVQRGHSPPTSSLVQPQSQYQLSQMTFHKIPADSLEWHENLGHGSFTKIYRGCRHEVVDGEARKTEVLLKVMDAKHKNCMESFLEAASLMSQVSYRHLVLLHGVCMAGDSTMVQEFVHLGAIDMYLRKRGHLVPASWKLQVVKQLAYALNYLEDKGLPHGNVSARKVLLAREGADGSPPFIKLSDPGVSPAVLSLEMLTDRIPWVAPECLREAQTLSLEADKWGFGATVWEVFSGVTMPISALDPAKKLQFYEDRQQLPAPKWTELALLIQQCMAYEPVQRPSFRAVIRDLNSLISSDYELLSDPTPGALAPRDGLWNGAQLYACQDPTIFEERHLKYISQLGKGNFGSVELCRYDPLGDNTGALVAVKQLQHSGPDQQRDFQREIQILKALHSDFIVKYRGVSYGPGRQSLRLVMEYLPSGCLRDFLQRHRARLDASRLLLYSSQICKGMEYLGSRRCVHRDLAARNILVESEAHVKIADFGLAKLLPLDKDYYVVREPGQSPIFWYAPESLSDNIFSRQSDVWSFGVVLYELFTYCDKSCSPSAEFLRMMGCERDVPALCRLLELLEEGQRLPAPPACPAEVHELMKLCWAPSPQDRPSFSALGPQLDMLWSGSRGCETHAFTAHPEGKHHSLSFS
As to the kind of experiment: trFRET kinase activity assay, Jak3. The format is biochemical. The conditions noted are these: 1 μM ATP, mean and standard error; read-out: IC50, inhibition of Jak3 enzyme activity. As to the method:
as §1, §2, §3

In a further test the target is T3, Jak1 (Homo sapiens, UniProt P23458).
T3 construct: Jak1 (residues 845–1142) was expressed in Sf9 cells; GST; made in house; host or cells: Sf9 insect cells
T3 sequence (P23458 845-1142, species assumed): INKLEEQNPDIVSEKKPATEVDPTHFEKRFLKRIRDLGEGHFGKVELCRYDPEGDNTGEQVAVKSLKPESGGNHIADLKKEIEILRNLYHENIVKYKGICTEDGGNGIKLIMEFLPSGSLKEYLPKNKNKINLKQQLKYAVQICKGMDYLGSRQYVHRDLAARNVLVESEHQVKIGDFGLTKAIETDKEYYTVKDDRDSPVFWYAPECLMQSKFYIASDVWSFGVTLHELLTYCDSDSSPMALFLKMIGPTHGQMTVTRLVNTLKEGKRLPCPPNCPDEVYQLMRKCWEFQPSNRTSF
As to the kind of experiment: trFRET kinase activity assay, Jak1. The format is biochemical. Conditions: Jak1 (845–1142) GST fusion, 1 μM ATP, mean and standard error; read-out: IC50, inhibition of Jak1 enzyme activity. As to the method: as §1, §2, §3

In test [1] the test system is Mouse Tyk2 kinase domain (residues 870–1170; Asp1016Ala mutant). The test can be described thus: Partial proteolysis of Tyk2 kinase domain by thermolysin with and without ligand. Conditions: 30 μM compound, sum of ~27 and ~29 kDa peaks, 0 to 90 minutes, room temperature. As to the method: Mouse Tyk2 kinase domain (0.25 mg/mL, residues 870–1170; Asp1016Ala mutant) was incubated for 0 to 90 minutes with thermolysin (0.25 mg/mL) at room temperature in 50 mM HEPES pH 6.7, 150 mM NaCl, 5% glycerol, and 2.5 mM CaCl2 in the presence and absence of 30 μM Compound 2. EDTA (final conc 100 mM) was used as stop solution to quench the proteolysis reactions. Samples were separated by use of a Caliper LC90 system and the remaining substrate and product bands were quantitated. Intact (undigested) Tyk2 ran in this system at ~29 kDa. Addition of thermolysin yielded a partial digestion product of ~27 kDa (Additional file 1: Figure 1) within 5 minutes, which was unaffected by addition of Compound 2. Subsequent degradation products were strongly influenced by the presence of Compound 2 (Additional file 1: Figure S1). Therefore the sum of the intensities of the 29 and 27 kDa peaks was used as a measure of inhibitor-dependent resistance to thermolysin digestion. […]
In the absence of inhibitor, a 20 kDa fragment is generated after ~1-5 minutes and subsequently degraded. […] Quantitated values of Tyk2 peaks of ~27 and ~29 kDa during digestion with thermolysin, in the absence or presence of 30 μM Compound 2 were used to monitor overall degradation rates in Figure 2.

A further test addresses T4, thermolysin (Bacillus thermoproteolyticus, UniProt P00800).
T4 sequence (P00800 233-548): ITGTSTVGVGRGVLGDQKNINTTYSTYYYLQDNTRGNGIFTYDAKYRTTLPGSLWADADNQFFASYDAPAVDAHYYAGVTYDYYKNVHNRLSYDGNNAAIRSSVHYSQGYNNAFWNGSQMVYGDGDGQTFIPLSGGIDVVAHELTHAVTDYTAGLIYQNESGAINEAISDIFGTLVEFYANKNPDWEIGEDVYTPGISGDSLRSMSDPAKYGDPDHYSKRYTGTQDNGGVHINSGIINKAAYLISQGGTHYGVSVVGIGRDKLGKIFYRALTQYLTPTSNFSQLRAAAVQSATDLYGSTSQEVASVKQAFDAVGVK
As to the kind of experiment: Digestion of BSA control by thermolysin. The format is biochemical. Conditions: BSA control digested by thermolysin in the same buffer.

A further test has as its target T5, human Tyk2 (Homo sapiens, UniProt P29597).
T5 construct: human Tyk2 enzyme (residues 880–1185); expressed in Sf9 cells; His tag (cleavable); TEV site per construct name His-Tev-huTyk2 (880–1185)-Flag) (N); Flag (C); made in house; host or cells: Sf9 insect cells
T5 sequence (P29597 880-1185): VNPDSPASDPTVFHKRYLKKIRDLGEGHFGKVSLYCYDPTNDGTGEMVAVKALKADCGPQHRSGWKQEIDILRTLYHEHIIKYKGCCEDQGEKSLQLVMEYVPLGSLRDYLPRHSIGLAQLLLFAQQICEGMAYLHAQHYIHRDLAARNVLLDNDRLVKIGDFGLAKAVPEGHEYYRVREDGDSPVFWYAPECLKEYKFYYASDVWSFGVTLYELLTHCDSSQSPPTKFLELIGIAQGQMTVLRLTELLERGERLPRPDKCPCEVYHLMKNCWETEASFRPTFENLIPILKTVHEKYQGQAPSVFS
The test can be described thus: trFRET kinase activity assay, Tyk2. The format is biochemical. The conditions noted are these: human Tyk2 (880–1185), 1 μM ATP, mean and standard error; read-out: IC50, inhibition of Tyk2 enzyme activity. On the procedure: as §1, §2

T1 sequence (O60674 808-1132 limits assumed): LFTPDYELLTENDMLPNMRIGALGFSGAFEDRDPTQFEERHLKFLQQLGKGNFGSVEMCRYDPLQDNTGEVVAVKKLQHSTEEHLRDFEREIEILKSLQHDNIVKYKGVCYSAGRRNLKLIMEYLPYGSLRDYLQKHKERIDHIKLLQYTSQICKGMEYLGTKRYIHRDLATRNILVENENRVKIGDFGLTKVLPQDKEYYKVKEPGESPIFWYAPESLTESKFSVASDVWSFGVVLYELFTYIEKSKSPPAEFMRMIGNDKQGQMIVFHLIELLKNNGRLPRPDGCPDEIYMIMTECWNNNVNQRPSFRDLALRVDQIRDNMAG

Consider `Nc1n[nH]c2ccc(-c3ccc(NS(=O)(=O)c4cccc(Cl)c4)cc3)cc12` [Compound 1, N-[4-(3-Amino-1H-indazol-5-yl)-phenyl]-3-chloro-benzenesulfonamide], for which the concentration for half-maximal inhibition (IC50) (usually the midpoint of a concentration-inhibition curve) on Jak2 is 7 ± 2 nM; at Jak3 it was 42 ± 1 nM; at Jak1, 5 ± 0.4 nM.

For the compound `O=C(Nc1n[nH]c2ccc(-c3ccc(NS(=O)(=O)c4cccc(Cl)c4)cc3)cc12)c1ccco1` [Compound 2, Furan-2-carboxylic acid {5-[4-(3-chloro-benzenesulfonylamino)-phenyl]-1 H-indazol-3-yl}amide], the “reduction of the rate of degradation of the enzyme to smaller forms (<27 kDa) by thermolysin” value in test [1] is reported as 13 fold. In addition, at thermolysin, the “inhibition of thermolysin protease activity (BSA digestion)” value was “not an inhibitor of thermolysin protease activity”. For the same compound, the IC50 is 4 ± 1 nM on Jak2, 41 ± 3 nM at Jak3, 10 ± 0.1 nM at Jak1 and less than 3 nM on human Tyk2.
